Measurements reported in patent publication US20220380341A1, “INHIBITORS OF HIV-1 NEF FOR THE TREATMENT OF HIV DISEASE” (priority 2018, published 2022).
pIC50, pKd: −log10 of the molar value. Like-named read-outs stand apart in the source and are kept apart here.

Tests used:
[1] = test system: HIV-1NL4-3; experiment: HIV-1 infectivity assay in TZM-bl reporter cell line (LTR-luciferase, 48 h); type: cell-based; settings: Human immunodeficiency virus 1, TZM-bl
How it was run: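 Nef-dependent infectivity in TZM-bl cells: HIV-1NL4-3 infection with 1 μM compound, luciferase read at 48 h, normalized against DMSO wild-type and Nef-defective controls. Compound cytotoxicity in uninfected cells measured by Cell Titer Blue.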

[2] = test system: HIV-1 NL4-3; experiment: HIV-1 replication in normal donor PBMCs (p24 Gag AlphaLISA); type: cell-based; settings: Table 1, 4 days, words (Not active, Borderline) where no bound is given
Protocol: FIG. 4. Inhibition of HIV-1 replication by compounds disclosed herein in PBMCs. Donor PBMCs were infected with HIV-1 in the presence of inhibitor concentrations ranging from 1 to 1,000 nM or the DMSO carrier solvent as a negative control (0.1% DMSO final). Replication was assessed by p24 Gag AlphaLISA (Perkin Elmer) […]. Each donor was also infected with Nef-defective HIV-1 to establish the baseline for Nef-dependent enhancement of replication in each culture. Cytotoxicity was assessed in uninfected PBMCs over the same incubation period using the CellTiter-Blue assay (Promega). Data were fit by non-linear regression analysis (GraphPad Prism v.7.04) to determine the IC50 and CC50 values shown.
The tables also show data for HIV-1 Replication in normal donor peripheral blood mononuclear cells (PBMCs), which is assay is conducted as follows:
Non-HLA-typed buffy coats (Source: Pittsburgh Central Blood Bank, #E3755) are received and processed within 24 hours of blood donation. PBMCs are isolated via rocking for RBC separation following 1:1 dilution with PBS, followed by Ficoll gradient centrifugation. The lymphocyte fraction is removed and washed several times for a final concentration of ˜150-300×10^6 cells per donor. Cells are activated for 3 days with 1-5 μg/mL PHA (Sigma) and 50 U/mL IL-2. Cells are plated at 750,000 cells/ml and viability is checked at day 3 using the Cell Titer Blue assay (Promega). If cells are >90% viable, then they are infected with HIV-1 NL4-3, wild-type or Δ-Nef mutant (input typically 30-500 pg/mL p24 capsid equivalents) in the presence or absence of Nef inhibitor analogs. IL-2 is included in the media at the time of infection. After 4 days, cells are lysed with 1% Triton X-100 for 1.5 h, checked for viability via Cell Titer Blue, and frozen/stored at −20° C. HIV-1 replication is assessed with a high-sensitivity HIV-1 p24 AlphaLISA assay (Perkin Elmer) in ½-volume 96-well plates, using one-half of the recommended assay volumes for all reagents (including samples). Assays are read on the BioTek Cytation5 instrument; readout is in AlphaUnits and replication in p24 pg/mL is determined using an HIV-1 p24 capsid protein standard included in the Alpha kit.

[3] = molecular target: HIV-1 NefNL4-3 (Human immunodeficiency virus type 1 group M subtype B, UniProt P03406, A33V/T15A/T51N/V11I); experiment: Surface plasmon resonance binding to recombinant full-length Nef (NL4-3); settings: for RU30/RUNef (extent of binding): response units at 30 μM relative to Nef immobilized on the SPR chip; for T, minutes (residence time): 2-step induced fit, T = 1/koff2
[4] = test system: TZM-bl cell line; type: cell-based; settings: human, 1 μM
How it was run: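 TZM-bl cells (HIV-1 LTR-luciferase) infected with HIV-1NL4-3 with compound at 1 μM; luciferase read 48 h later. Percent inhibition normalized to DMSO wild-type infection (0%) and Nef-defective HIV-1 infection (100% of Nef-dependent effect). Viability in uninfected TZM-bl cells by Cell Titer Blue.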

[5] = 48 h, Table 1, TZM-bl cells, 1 μM, 48 h, 100% = Nef-defective HIV-1, read-out: HIV-1 Infectivity % Inhibition Norm. to Δ-Nef @ 1 μM
[6] = Nef NL4-3 Binding, SPR 2-state fitting KD, Table 1, 2-step induced-fit model
[7] = 1.0 μM, TZM-bl reporter cell line, Table 4, read-out: % Infectivity Inhibition
[8] = read-out: Nef NL4-3 Binding, SPR 1:1 or 2-site fitting KD2, Table 1, 2-site fit, second component
[9] = KD, M, Table 4, SPR fit 2-step induced fit, KD = koff/kon × koff2/(koff2 + kon2)

Oc1c(CCc2ccc(F)cc2)c(-c2cccc(F)c2)nn1-c1nc2ccccc2[nH]1 [Compound I-110, 1-(1H-1,3-benzodiazol-2-yl)-3-(3-fluorophenyl)-4-[2-(4-fluorophenyl)ethyl]-1H-pyrazol-5-ol]
inhibition at 1 µM [1, 5]: 84.9%
HIV Replication PBMC IC50 vs. HIV NL4-3 [2]: Not active
pKd ([3]; Nef NL4-3 Binding, SPR 1:1 or 2-site fitting KD2, Table 1, 2-site fit, second component): 5.67
pKd [3, 6]: 7.52
Percent Viability @ 1 μM (TZM-bl cells) [4]: 88.4%

Oc1c(CCc2ccc(F)cc2)c(-c2ccc(C(F)(F)F)cn2)nn1-c1nc2ccccc2[nH]1 [Compound I-119, 1-(1H-1,3-benzodiazol-2-yl)-4-[2-(4-fluorophenyl)ethyl]-3-[5-(trifluoromethyl)pyridin-2-yl]-1H-pyrazol-5-ol]
inhibition at 1 µM [1, 7]: 80.7%
inhibition at 1 µM [1, 5]: 80.7%
HIV Replication PBMC IC50 vs. HIV NL4-3 [2]: Not active
pKd [3]: 10.72
pKd [3, 8]: 5.17
RU30/RUNef (extent of binding) [3]: 7.52E- 03
% Cell Viability [4]: 77.1%
Percent Viability @ 1 μM (TZM-bl cells) [4]: 77.1%

Oc1c(CC2CCCC2)c(-c2ccc(C(F)(F)F)cc2)nn1-c1nc2ccccc2[nH]1 [Compound I-123, 1-(1H-1,3-benzodiazol-2-yl)-4-(cyclopentylmethyl)-3-[4-(trifluoromethyl)phenyl]-1H-pyrazol-5-ol]
inhibition at 1 µM [1, 7]: 96.1%
inhibition at 1 µM [1, 5]: 96.1%
HIV Replication PBMC IC50 vs. HIV NL4-3 [2]: Not active
pKd [3]: 7.05
pKd [3, 9]: 10.03
pKd [3, 6]: 10.03
T, minutes (residence time) ([3]; Table 4): 3.79E + 05 minutes
pKd [3, 8]: 4.06
RU30/RUNef (extent of binding) [3]: 2.57E- 02
% Cell Viability [4]: 85.3%
Percent Viability @ 1 μM (TZM-bl cells) [4]: 85.3%

Oc1c(CCc2ccc(F)cc2)c(C2CCC2)nn1-c1nc2ccccc2[nH]1 [Compound I-129, 1-(1H-1,3-benzodiazol-2-yl)-3-cyclobutyl-4-[2-(4-fluorophenyl)ethyl]-1H-pyrazol-5-ol]
inhibition at 1 µM [1, 7]: 60.9%
inhibition at 1 µM [1, 5]: 60.9%
pIC50 ([2]; Human immunodeficiency virus 1, NL43, PBMC, 96 h): ≥ 8.00
pKd [3]: 8.62
pKd [3, 9]: 10.43
pKd [3, 6]: 10.43
T, minutes (residence time) ([3]; Table 4): 5.19E + 05 minutes
pKd [3, 8]: 4.77
RU30/RUNef (extent of binding) [3]: 1.28E- 02
% Cell Viability [4]: 99.3%
Percent Viability @ 1 μM (TZM-bl cells) [4]: 99.3%

Oc1c(CCc2ccc(F)cc2)c(-c2ccc3c(c2)OC(F)(F)O3)nn1-c1nc2ccccc2[nH]1 [Compound I-145, 1-(1H-1,3-benzodiazol-2-yl)-3-(2,2-difluoro-2H-1,3-benzodioxol-5-yl)-4-[2-(4-fluorophenyl)ethyl]-1H-pyrazol-5-ol]
inhibition at 1 µM [1, 7]: 0%
inhibition at 1 µM [1, 5]: -11.7%
HIV Replication PBMC IC50 vs. HIV NL4-3 [2]: Not active
RU30/RUNef (extent of binding) [3]: 4.38E- 03
% Cell Viability [4]: 98.2%
Percent Viability @ 1 μM (TZM-bl cells) [4]: 98.2%

Oc1c(CCc2ccc(F)cc2)c(-c2ccc(C(F)(F)F)cc2)nn1-c1nc2ccc(Cl)cc2[nH]1 [Compound I-161, 1-(6-chloro-1H-1,3-benzodiazol-2-yl)-4-[2-(4-fluorophenyl)ethyl]-3-[4-(trifluoromethyl)phenyl]-1H-pyrazol-5-ol]
inhibition at 1 µM [1, 7]: 38.7%
inhibition at 1 µM [1, 5]: 38.7%
HIV Replication PBMC IC50 vs. HIV NL4-3 [2]: Not active
RU30/RUNef (extent of binding) [3]: 1.44E- 02
% Cell Viability [4]: 89.9%
Percent Viability @ 1 μM (TZM-bl cells) [4]: 89.9%

Oc1c(CCc2ccc(F)cc2)c(-c2ccc(C(F)(F)F)cn2)nn1-c1nc2cc(F)ccc2[nH]1 [Compound I-167, 1-(5-fluoro-1H-1,3-benzodiazol-2-yl)-4-[2-(4-fluorophenyl)ethyl]-3-[5-(trifluoromethyl)pyridin-2-yl]-1H-pyrazol-5-ol]
inhibition at 1 µM [1, 7]: 52.1%
inhibition at 1 µM [1, 5]: 52.1%
HIV Replication PBMC IC50 vs. HIV NL4-3 [2]: Not active
pKd [3]: 6.52
pKd [3, 9]: 8.69
pKd [3, 6]: 8.69
T, minutes (residence time) ([3]; Table 4): 5.05E + 03 minutes
pKd [3, 8]: 5.76
RU30/RUNef (extent of binding) [3]: 1.11E- 02
% Cell Viability [4]: 81.2%
Percent Viability @ 1 μM (TZM-bl cells) [4]: 81.2%
